According to patent US11583525B2, “Geranylgeranyltransferase I inhibitor for treatment of a PTEN defective cancer” (H. LEE MOFFITT CANCER CENTER AND RESEARCH INSTITUTE, INC., priority 2017, dated 2023):
“Also recorded” adds a separate entry of the source. Peptide text beside a SMILES is read from it. * marks the point of attachment. Cbz = O=C(OCc1ccccc1)*

Columns and labels:
FBXL2 = assay: Live-cell imaging of GFP-tagged FBXL2 localization in HeLa cells; type: cell-based, human; conditions: HeLa cells transfected with GFP-tagged FBXL2; GGTi-2418 15 μM for 16 h
Procedure: FIGS. 6A, 6B, 6C, 6D, 6E, 6F, 6G, and 6H that the degradation of IP3R3 is dependent on FBXL2 localization to cell membranes and on the segregase activity of p97. […] Live cell imaging was carried out with an LSM510 confocal microscope using a 63× objective. Scale bars, 10 μm. […] Cells were subsequently harvested at the indicated times for immunoblotting. […] Cells were subsequently harvested for immunoblotting. This experiment was performed once. […] The bracket on the right marks a ladder of bands which, presumably, are ubiquitinated species of IP3R3 that are not degraded when p97 is inhibited. […] Cells were subsequently stimulated with medium containing serum and harvested at the indicated time points for immunoblotting. […] Error bars indicate s.e.m. […] Thus, we propose that, after its FBXL2-mediated ubiquitination, IP3R3 is extracted from cell membranes by the segregase activity of p97 to be degraded by the proteasome. […] 24 h post-transfection, cells were treated with MG132 for 3 h before harvesting for immunoprecipitation and immunoblotting as indicated. This experiment was performed twice. […] After immunopurification with an anti-Flag resin, in vitro ubiquitination of IP3R3 was performed in the presence of UAE1, Ubch3, Ubch5 and ubiquitin (Ub). […] Samples were analysed by immunoblotting with the indicated antibodies. […]

IP3R3 = assay: Serum-mediated degradation of IP3R3 in serum-starved, serum re-stimulated NHFs (immunoblotting); type: cell-based, human; conditions: NHFs serum-starved 72 h, re-stimulated with serum; 10 μM MG132, 10 μM Eer1
Procedure: 24 h post-transfection, cells were treated with MG132 for 3 h before harvesting for immunoprecipitation and immunoblotting as indicated. WCL, whole-cell lysate from untransfected cells. […] After harvesting, cells were lysed, and cell membranes (CM) were isolated and immunoprecipitated with either a normal mouse IgG or an anti-Flag antibody. Subsequently, immunoprecipitates were analysed by immunoblotting as indicated. The results of these experiments (n=2) indicate that FBXL2 is incorporated into a complete SCF ligase that binds its substrate(s) at cellular membranes. […] After harvesting, cells were lysed and cytoplasmic (CYTO) and cell membrane (CM) fractions were isolated and analysed by immunoblotting as indicated. Actin and calnexin are used as markers for cytoplasmic and cell membrane fractions, respectively. This experiment was performed twice. […] 24 h post-transfection, where indicated, cells were treated with MG132 for 3 h before harvesting for immunoprecipitation and immunoblotting. Ned. CUL1, neddylated CUL1. […] The experiment was performed in the presence or absence of MG132 as indicated. Whole-cell lysates were immunoblotted as indicated. The asterisk indicates a non-specific band. This experiment was performed twice. […] P values were calculated by unpaired t-test. Error bars indicate s.e.m. […] Error bars indicate s.e.m. The values represent the ratios between FBXL2 and GAPDH mRNAs. […] Cells were subsequently stimulated with medium containing serum and harvested at the indicated times for immunoblotting. […] Error bars indicate s.e.m. […] Cells were subsequently stimulated with medium containing serum and harvested at the indicated time points for immunoblotting. […] Error bars indicate s.e.m. […] Exon 2 and exon 3 refer to the human FBXL2 gene in NC_000003.12 (GRCh38.p7 (Gene Bank ID: 3129728)). […]
FIGS. 6A, 6B, 6C, 6D, 6E, 6F, 6G, and 6H that the degradation of IP3R3 is dependent on FBXL2 localization to cell membranes and on the segregase activity of p97. […] Samples were analysed by immunoblotting with the indicated antibodies. […]

Row | Compound | FBXL2 localization (FBXL2) | IP3R3 levels / degradation after serum re-stimulation (IP3R3)
1 | Cc1nc[nH]c1CN1CCN(C(=O)N[C@@H](CC(C)C)C(=O)O)[C@@H](Cc2ccccc2)C1=O [GGTi-2418] | delocalized FBXL2; also recorded: delocalizes FBXL2 from membranes | –
2 | CC(C)C[C@@H](C=O)NC(=O)[C@H](CC(C)C)NC(=O)[C@H](CC(C)C)NC(=O)OCc1ccccc1 [MG132] (Cbz-Leu-Leu-Leu-aldehyde) | – | much less
